Experimental data as given in US20250268894A1, “MACROCYCLE COMPOUNDS FOR THE TREATMENT OF CANCER” (Hoffmann-La Roche Inc., priority 2022, published 2025).

Experiments:
[1] = Single dose pharmacokinetics (PK) study in female BALB/c mice; type: in vivo
Procedure: The purpose of this study was to determine the pharmacokinetics of selected compounds following single intravenous bolus or oral gavage administration in female BALB/c mice. Briefly, two groups of female BALB/c mice (available from Shanghai Lingchang Biotechnology Co., Ltd)(N=3/group) were treated with a single dose of compound intravenously at 3 mg/kg (IV) or orally at 30 mg/kg (PO). Blood samples were collected at 5 min (only for IV), […], 30 min, 1 h, 2 h, 4 h, 7 h and 24 h post-dose. Blood samples were placed on ice until centrifugation to obtain plasma samples. The concentration of compound in plasma samples was determined using LC-MS/MS method. The pharmacokinetic parameters were calculated by non-compartmental analysis.

[2] = test system: NCI-H358 cells (KRAS G12C); experiment: Cell viability assay (Cell Counting Kit-8), KRAS G12C; type: cell-based; conditions: Homo sapiens, NCI-H358, 72 hrs
Procedure, shortened: (§1)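 Cells seeded overnight at 5,000/well (NCI-H358) or 2,000/well (AGS, SW620), then exposed to compound for 72 hrs at 0.5% DMSO final. CCK-8 read as OD450 minus OD650 after 2 hrs; IC50 from 4-parameter sigmoidal fit.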

AGS cells (KRAS G12D) = experiment: Cell viability assay (Cell Counting Kit-8), KRAS G12D; type: cell-based; conditions: Homo sapiens, 72 hrs
Procedure, shortened: as §1

KRAS G12V-BRAF complex = KRAS G12V-BRAF complex (Homo sapiens (Human), UniProt P01116+P62937, G12V); experiment: KRAS-BRAF with CYPA (500 nM) interaction assay (TR-FRET), G12V; type: biochemical
Chain of KRAS G12V-BRAF complex (P01116-2 other isoform, or with tags, fused parts or gaps G12V): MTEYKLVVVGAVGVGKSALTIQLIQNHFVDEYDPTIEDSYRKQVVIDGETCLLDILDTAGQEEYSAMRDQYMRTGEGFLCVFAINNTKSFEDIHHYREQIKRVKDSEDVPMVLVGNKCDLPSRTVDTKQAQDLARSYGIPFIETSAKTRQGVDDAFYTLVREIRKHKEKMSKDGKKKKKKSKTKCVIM
Chain of KRAS G12V-BRAF complex (P62937 whole entry): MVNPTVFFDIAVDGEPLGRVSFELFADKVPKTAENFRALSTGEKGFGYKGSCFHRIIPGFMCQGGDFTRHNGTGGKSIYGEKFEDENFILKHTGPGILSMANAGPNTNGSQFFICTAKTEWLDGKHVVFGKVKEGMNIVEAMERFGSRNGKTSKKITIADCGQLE
Procedure, shortened: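 TR-FRET read of compound- or compound-CYPA-driven disruption of BRAF binding by KRAS G12C, G12D or G12V, with CYPA at 500 nM. Compounds tested as 16-point 3-fold dilutions from 10 μM final, incubated 3 hours. Ex320/Em 665/615 nm ratio drop relative to DMSO wells marks disruption.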

[3] = test system: phosphorylation of ERK, KRAS G12D in AGS cells; experiment: pERK inhibition assay, KRAS G12D in AGS cells; type: cell-based, human; conditions: Homo sapiens, 4 hours
Procedure, shortened: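 NCI-H358 (G12C), AGS (G12D) and SW620 (G12V) cells in RPMI-1640/10% FBS, plated overnight, then treated 4 h with compound (0.5% DMSO final). Fixed, methanol-permeabilized; phospho-ERK detected by in-cell ELISA (anti-pERK, HRP secondary, TMB, OD450). IC50 from 4-parameter sigmoidal fit.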

[4] = test system: Miapaca-2 KRAS G12C + S17E cells; experiment: Stable KRAS mutant cell line viability assay (CellTiter-Glo), G12C + S17E; type: cell-based; conditions: Homo sapiens, MIA PaCa-2, 72 h, Miapaca-2 mutant cells, 3 d
From the text: (§2) The aim of the study was to determine the potency and efficacy of compounds for cell proliferation using CellTiter-Glo® (CTG) Luminescent Cell Viability Assay (Promega Corp., Madison, WI). We cloned […] KRAS^G12C variant sequences with secondary mutations (V8A, V9Y, S17E, T58I, A59T, S65W, R68S, D69P, M72I, D92R, H95N, Y96D, Q99F, Q99W, Y96H, and F156L) into the Miapaca-2. Totally 14 stable Miapaca-2 mutant cell lines were established through lentivirus infection. For the cell viability assay, cells were dosed with compounds in a 9-point dose-response using a 4 fold dilution series at a top dose of 10 μM. KRAS mutant cells were maintained in DMEM+10% FBS+2.5% HI Horse serum+1% PS+1 μg/mL Puromycin and seeded into 96-well plates at 800-1,500 cells per well 24 h before compound addition and then incubated with compound for 3 d before assaying viability (CellTiter-Glo, Promega). Assays were performed in biological duplicates. Nonlinear regression curves were fitted using Xfit. IC50 (absolute IC50) is the dose at which the estimated viability is 50% relative to untreated wells.

[5] = test system: Miapaca-2 KRAS G12C + T58I cells; experiment: Stable KRAS mutant cell line viability assay (CellTiter-Glo), G12C + T58I; type: cell-based; conditions: Homo sapiens, MIA PaCa-2, 72 h, Miapaca-2 mutant cells, 3 d
From the text: as §2

[6] = mouse, 30 mg/kg, po, female BALB/c mice, plasma

Which results are given for `CO[C@@H](C)c1ncc(N2CCN(CC(F)(F)F)CC2)cc1-c1c2c3cc(ccc3n1CC(F)(F)F)-c1csc(n1)C[C@H](NC(=O)[C@H](C(C)C)N(C)C(=O)N1CCOCC1)C(=O)N1CCC[C@H](N1)C(=O)OCC(C)(C)C2` (atropisomer, axis not shown; (M)) [Example 6]?
F ([1]; 30 mg/kg, po, female BALB/c mice): 29.7%; AUC0-last compared with compound A555 ([1]; 30 mg/kg, po, mouse model): 15 folds; Cmax compared with compound A555 ([1]; 30 mg/kg, po, mouse model): ~7 folds; clearance ([1]; mouse, 3 mg/kg, iv, female BALB/c mice, plasma): 3.7 mL/min/kg; AUC(0-t) [1, 6]: 36800 ng·h/mL; Cmax [1, 6]: 4890 ng/mL; IC50 [2]: 5 nM; IC50 (AGS cells (KRAS G12D)): 20 nM; IC50 (KRAS G12V-BRAF complex): 61 nM; IC50 [3]: 3 nM; IC50 [4]: 5 nM; IC50 [5]: 7 nM
